Results taken from EP0446604A2, “Pyridine and related aza heterocycle derivatives as cardiovascular agents” (AMERICAN CYANAMID COMPANY, priority 1990, dated 1991).

Legend:
[1] = target: T1, thromboxane synthetase enzyme (Rattus norvegicus, UniProt P49430); assay: Inhibition of thromboxane (TXB2) formation in washed rat platelets, TXB2 radioimmunoassay; type: biochemical, Okamoto-Aoki spontaneously hypertensive rats (SHR); conditions: Concentration 1x10^-4M, platelet suspension incubated 10 minutes at 37 °C
T1 construct: from tissue; host or cells: washed blood platelets from Okamoto-Aoki spontaneously hypertensive rats (SHR)
T1 sequence (P49430 1-533): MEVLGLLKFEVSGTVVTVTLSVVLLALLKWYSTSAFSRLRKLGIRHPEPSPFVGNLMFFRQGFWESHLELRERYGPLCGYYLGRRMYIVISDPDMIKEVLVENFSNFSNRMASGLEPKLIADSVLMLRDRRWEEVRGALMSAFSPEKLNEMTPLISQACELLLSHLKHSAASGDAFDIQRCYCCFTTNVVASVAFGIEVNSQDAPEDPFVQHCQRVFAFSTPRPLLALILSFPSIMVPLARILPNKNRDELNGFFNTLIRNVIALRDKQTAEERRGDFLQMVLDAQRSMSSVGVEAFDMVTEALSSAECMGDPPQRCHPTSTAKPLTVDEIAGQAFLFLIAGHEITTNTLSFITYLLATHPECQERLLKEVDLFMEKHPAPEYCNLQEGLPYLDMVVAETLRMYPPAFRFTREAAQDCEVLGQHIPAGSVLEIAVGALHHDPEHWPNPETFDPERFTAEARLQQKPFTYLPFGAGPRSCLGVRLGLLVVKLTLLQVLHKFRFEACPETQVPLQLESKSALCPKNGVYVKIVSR
Protocol: Under urethan anesthesia, […] of arterial blood from Okamoto-Aoki spontaneously hypertensive rats (SHR) (Taconic Farms, Germantown, NY) between 19 and 24 weeks in age is collected in one ml of 3.2% sodium citrate in a polystyrene tube. The blood is diluted with 3 ml of cold saline and centrifuged at room temperature for 15 minutes at 460xg. The platelet rich plasma (PRP) is separated. The platelets are isolated by centrifuging the PRP for 10 minutes at 1060xg and are washed in 4 ml of cold oxygenated Krebs phosphate buffer, pH 7.4. The chilled platelets, recovered from centrifuging at 800xg for 10 minutes, are resuspended in oxygenated Krebs phosphate buffer and diluted to contain 4.5-6.0 x 10⁴ platelets/µ1. The inhibition of thromboxane (TX) formation is studied by determining the concentration of thromboxane B₂ (TXB₂), the stable hydrolysis product of TXA₂. Assay samples, prepared on ice, contain 200 µ1 platelet suspension, 50 µ1 saline, and 50 µ1 vehicle (saline) or drug under study. The samples are incubated for 10 minutes at 37 °C in a metabolic shaker. The reaction is terminated by immersing the tubes in an ice bath and adding 50 µl of 0.5M citric acid. The samples are centrifuged for 10 minutes in a refrigerated centrifuge and the supernatants thus obtained are decanted and stored at -20 °C. The TXB₂ content for each sample is determined by a direct radioimmunoassay (RIA) utilizing a TXB₂ specific RIA kit purchased from New England Nuclear, Boston, MA and expressed as pg TXB₂ formed per minute per sample, from which the percent inhibition of TXB₂ formation is calculated.

[2] = test system: spontaneously hypertensive rats of the Okamoto strain; assay: Hypotensive activity in spontaneously hypertensive rats (method of Chan and Poorvin); type: in vivo; conditions: by gavage, 100 mg/kg or less, second identical dose 24 hours later; MABP measured 28 hours after initial dose; average MABP of the rats used 160±1.5 mm of mercury
Protocol: The novel compounds of the present invention are active hypotensive agents and were tested for hypotensive activity by the method of P.S. Chan and D. Poorvin, Clinical and Experimental Hypertension, 1 (6), 817-830 (1979). Male, 16 week old, spontaneously hypertensive rats of the Okamoto strain, from Taconic Farms, Germantown, New York, having an average mean arterial blood pressure of 160±1.5 mm of mercury, were used in the test. One to four rats were used per test compound. A rat is dosed by gavage with a test compound suspended in 2% pre-boiled starch at a concentration of 50 mg/ml, at a dose of 100 mg/kg of body weight or less, with 0.9% sodium chloride loading at a dose of 25 ml/kg of body weight. A second identical dose of the test compound, without sodium chloride loading is given 24 hours later. At 28 hours after the initial dose the mean arterial blood pressure (MABP) is measured. The procedure is repeated in a second and third rat when necessary. The results of this test on representative compounds of the present invention appear below in Table II.

[3] = test system: Male mice of the Swiss Webster Strain; assay: Calcium chloride-induced arrhythmia in anesthetized mice (survival); type: in vivo; conditions: Mus musculus, iv, Dose = 10 mg/kg i.v.; calcium chloride 200 mg/kg i.v. bolus 5, 15 or 30 minutes after drug; observed 15 minutes; read-out: CaCl2 #Mice Surviving #Mice Tested (converted)
Source text: (§1) Intravenous administration of high doses of calcium or potassium chloride in animals produces cardiac arrhythmias, cardiac fibrillation and cardiac arrest. Any agent that can prevent these events is considered an antiarrhythmic/antifibrillatory agent. (Meth. and Find Exptl. Clin Pharmacol.2:223-252(1980); Pharmacol, Ther. 24:401-433 (1984); Experimental Cardiac and Antiarrhythmic Drugs, L. Szekeres and Gy. J. Dapp, Akademiai Kiado Preso, Budapest, 9-448 (1971).)
(§2) The method employed is as follows: Male mice of the Swiss Webster Strain (Charles River, Wilmington, MA) weighing 25-35 g are anesthetized with ethyl carbamate (urethan) (1.5g/kg body weight i.p.). A 25-gauge needle attached to PE-20 tubing is inserted into a caudal vein for drug administration. The lead II ECG is recorded by needle electrodes placed subcutaneously in the limbs. All data is collected on a Gould Brush recorder. Animals are observed 5 minutes before drug administration. A 5, 15, or 30 minute period following drug administration is allowed before the bolus injection of calcium chloride, 200 mg/kg i.v. or potassium chloride, 62.5 mg/kg i.v. Control mice receive 4 ml/kg of 0.9% sodium chloride i.v. Mice are observed an additional 15 minutes for arrhythmias, fibrillation, survival or death. Any compound at a dose of less than 20 mg/kg i.v. that protects 3 out of 6 mice from cardiac death in either the potassium or calcium chloride test, is considered active.

[4] = test system: Male mice of the Swiss Webster Strain; assay: Potassium chloride-induced arrhythmia in anesthetized mice (survival); type: in vivo; conditions: Mus musculus, iv, Dose = 10 mg/kg i.v.; potassium chloride 62.5 mg/kg i.v. bolus 5, 15 or 30 minutes after drug; observed 15 minutes; read-out: KCl #Mice Surviving #Mice Tested (converted)
Source text: as §1, §2

SMILES	inhibition at 100 µM [1] [%]	Avg. MABP in mm Hg (No. of Rats) [2]	responders at 10 mg/kg [3] [%]	responders at 10 mg/kg [4] [%]
Cc1cc(NCCCn2ccnc2)nc2c(C)cccc12 [Example 32, N-[3-(1H-Imidazol-1-yl)propyl]-4,8-dimethyl-2-quinolinamine]	98	96 (2) mm Hg	0	50
CC(CNc1nc2ccccc2c2ccccc12)Cn1ccnc1 (stereo not drawn) [Example 86, N-[3-(1H-Imidazol-1-yl)-2-methylpropyl]-6-phenanthridinamine]	100	114 (2) mm Hg	16.7	50
Cc1cc(NCC(C)Cn2ccnc2)nc2ccccc12 (stereo not drawn) [Example 88, N-[3-(1H-Imidazol-1-yl)-2-methylpropyl]-4-methyl-2-quinolinamine]	98	96 (2) mm Hg	16.7	83.3
